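Following 48 hours of exposure in 96-well plates, responses at five concentrations were used to interpolate endpoints linearly. GI50 = concentration required for 50% inhibition of growth.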 Activity calls are given as the source filed them. No stated cut-off is given here; in the data, active = GI50 up to about 1.1 µM and inactive = higher.
Key:
Assay in all cases: NCI anticancer screen, dose series, 48 h
786-0 = test system: 786-0
A498 = test system: A498
A549 = test system: A549
ACHN = test system: ACHN
BT-549 = test system: BT-549
CAKI-1 = test system: CAKI-1
CCRF-CEM = test system: CCRF-CEM
COLO 205 = test system: COLO 205
DU-145 = test system: DU-145
EKVX = test system: EKVX
HCC 2998 = test system: HCC 2998
HCT-116 = test system: HCT-116
HCT-15 = test system: HCT-15
HL-60 = test system: HL-60
HOP-62 = test system: HOP-62
HOP-92 = test system: HOP-92
HT-29 = test system: HT-29
Hs-578T = test system: Hs-578T
IGROV-1 = test system: IGROV-1
K562 = test system: K562
KM12 = test system: KM12
LOX IMVI = test system: LOX IMVI
M14 = test system: M14
MCF7 = test system: MCF7
MDA-MB-231 = test system: MDA-MB-231
MDA-MB-435 = test system: MDA-MB-435
MDA-N = test system: MDA-N
MOLT-4 = test system: MOLT-4
NCI-H226 = test system: NCI-H226
NCI-H23 = test system: NCI-H23
NCI-H460 = test system: NCI-H460
NCI-H522 = test system: NCI-H522
NCI/ADR-RES = test system: NCI/ADR-RES
OVCAR-3 = test system: OVCAR-3
OVCAR-4 = test system: OVCAR-4
OVCAR-5 = test system: OVCAR-5
OVCAR-8 = test system: OVCAR-8
RXF 393 = test system: RXF 393
SF-268 = test system: SF-268
SF-295 = test system: SF-295
SF-539 = test system: SF-539
SK-MEL-28 = test system: SK-MEL-28
SK-MEL-5 = test system: SK-MEL-5
SK-OV-3 = test system: SK-OV-3
SN12C = test system: SN12C
SNB-19 = test system: SNB-19
SNB-75 = test system: SNB-75
SW-620 = test system: SW-620
TK-10 = test system: TK-10
U-251 = test system: U-251
UACC-257 = test system: UACC-257
UACC-62 = test system: UACC-62
UO-31 = test system: UO-31
PC-3 = test system: PC-3
RPMI-8226 = test system: RPMI-8226
SK-MEL-2 = test system: SK-MEL-2
SR = test system: SR
T47D = test system: T47D

In the case of c1ccc2sc(C3(N4CCCCCC4)CCCCC3)cc2c1, the GI50 (786-0) is reported as 19.1 µM (inactive), the GI50 (A498) is reported as 18.1 µM (inactive) and the GI50 (A549) is reported as 35.2 µM (inactive). The GI50 (ACHN) was 30.8 µM (inactive), the GI50 (BT-549) was 25 µM (inactive) and the GI50 (CAKI-1) was 36.5 µM (inactive). For the same molecule, the GI50 (CCRF-CEM) was 16.7 µM (inactive), the GI50 (COLO 205) was 16 µM (inactive) and the GI50 (DU-145) was 29.4 µM (inactive). The GI50 (EKVX) was 22.8 µM (inactive), the GI50 (HCC 2998) was 15.5 µM (inactive) and the GI50 (HCT-116) was 20.3 µM (inactive). The GI50 (HCT-15) was 22.3 µM, the GI50 (HL-60) was 24.2 µM (inactive) and the GI50 (HOP-62) was 26.2 µM (inactive). For the same molecule, the GI50 (HOP-92) was 17.6 µM (inactive), the GI50 (HT-29) was 15.3 µM (inactive) and the GI50 (Hs-578T) was 22.4 µM (inactive). The GI50 (IGROV-1) was 36.1 µM (inactive), the GI50 (K562) was 16.7 µM (inactive) and the GI50 (KM12) was 16.1 µM (inactive). The GI50 (LOX IMVI) was 20.6 µM (inactive), the GI50 (M14) was 19.3 µM (inactive) and the GI50 (MCF7) was 17.8 µM (inactive). For the same molecule, the GI50 (MDA-MB-231) was 27.8 µM (inactive), the GI50 (MDA-MB-435) was 25.3 µM (inactive) and the GI50 (MDA-N) was 28.9 µM (inactive). For the same molecule, the GI50 (MOLT-4) was 15.6 µM (inactive), the GI50 (NCI-H226) was 22.6 µM (inactive) and the GI50 (NCI-H23) was 20 µM (inactive). For the same molecule, the GI50 (NCI-H460) was 18.8 µM (inactive), the GI50 (NCI-H522) was 21.1 µM (inactive) and the GI50 (NCI/ADR-RES) was 21.8 µM (inactive). The GI50 (OVCAR-3) was 16.3 µM (inactive), the GI50 (OVCAR-4) was 28.4 µM (inactive) and the GI50 (OVCAR-5) was 17.8 µM (inactive). The GI50 (OVCAR-8) was 29.5 µM (inactive), the GI50 (RXF 393) was 17.7 µM (inactive) and the GI50 (SF-268) was 25.8 µM (inactive). The GI50 (SF-295) was 20.1 µM (inactive), the GI50 (SF-539) was 23.4 µM (inactive) and the GI50 (SK-MEL-28) was 26.1 µM (inactive). The GI50 (SK-MEL-5) was 17.5 µM (inactive), the GI50 (SK-OV-3) was 29 µM (inactive) and the GI50 (SN12C) was 20.6 µM (inactive). The GI50 (SNB-19) was 18.7 µM (inactive), the GI50 (SNB-75) was 23.8 µM (inactive) and the GI50 (SW-620) was 18.2 µM (inactive). For the same molecule, the GI50 (TK-10) was 22.8 µM (inactive), the GI50 (U-251) was 19.2 µM (inactive) and the GI50 (UACC-257) was 21.5 µM (inactive). For the same molecule, the GI50 (UACC-62) was 20.4 µM (inactive) and the GI50 (UO-31) was 20.3 µM (inactive).
In the case of O=C(O)CC(CC(=O)O)n1cccc1, the GI50 (786-0) is reported as > 100 µM (inactive), the GI50 (A498) is reported as > 100 µM (inactive) and the GI50 (A549) is reported as > 100 µM (inactive). The GI50 (ACHN) was > 100 µM (inactive), the GI50 (BT-549) was > 100 µM (inactive) and the GI50 (CAKI-1) was > 100 µM (inactive). For the same molecule, the GI50 (CCRF-CEM) was > 100 µM (inactive), the GI50 (COLO 205) was > 100 µM (inactive) and the GI50 (DU-145) was > 100 µM (inactive). For the same molecule, the GI50 (EKVX) was > 100 µM (inactive), the GI50 (HCT-116) was > 100 µM (inactive) and the GI50 (HCT-15) was greater than 100 µM. For the same molecule, the GI50 (HL-60) was > 100 µM (inactive), the GI50 (HOP-62) was > 100 µM (inactive) and the GI50 (HOP-92) was > 100 µM (inactive). The GI50 (HT-29) was > 100 µM (inactive), the GI50 (IGROV-1) was > 100 µM (inactive) and the GI50 (K562) was > 100 µM (inactive). The GI50 (KM12) was > 100 µM (inactive), the GI50 (LOX IMVI) was > 100 µM (inactive) and the GI50 (M14) was > 100 µM (inactive). For the same molecule, the GI50 (MCF7) was > 100 µM (inactive), the GI50 (MDA-MB-231) was > 100 µM (inactive) and the GI50 (MDA-MB-435) was > 100 µM (inactive). The GI50 (MDA-N) was > 100 µM (inactive), the GI50 (MOLT-4) was > 100 µM (inactive) and the GI50 (NCI-H226) was > 100 µM (inactive). For the same molecule, the GI50 (NCI-H23) was > 100 µM (inactive), the GI50 (NCI-H460) was > 100 µM (inactive) and the GI50 (NCI-H522) was > 100 µM (inactive). For the same molecule, the GI50 (NCI/ADR-RES) was > 100 µM (inactive), the GI50 (OVCAR-3) was > 100 µM (inactive) and the GI50 (OVCAR-4) was > 100 µM (inactive). For the same molecule, the GI50 (OVCAR-5) was > 100 µM (inactive), the GI50 (OVCAR-8) was > 100 µM (inactive) and the GI50 (PC-3) was > 100 µM (inactive). The GI50 (RPMI-8226) was > 100 µM (inactive), the GI50 (RXF 393) was > 100 µM (inactive) and the GI50 (SF-295) was > 100 µM (inactive). The GI50 (SF-539) was > 100 µM (inactive), the GI50 (SK-MEL-28) was > 100 µM (inactive) and the GI50 (SK-MEL-2) was > 100 µM (inactive). The GI50 (SK-MEL-5) was > 100 µM (inactive), the GI50 (SK-OV-3) was > 100 µM (inactive) and the GI50 (SN12C) was > 100 µM (inactive). The GI50 (SNB-19) was > 100 µM (inactive), the GI50 (SR) was > 100 µM (inactive) and the GI50 (SW-620) was > 100 µM (inactive). The GI50 (T47D) was > 100 µM (inactive), the GI50 (TK-10) was > 100 µM (inactive) and the GI50 (U-251) was > 100 µM (inactive). For the same molecule, the GI50 (UACC-257) was > 100 µM (inactive), the GI50 (UACC-62) was > 100 µM (inactive) and the GI50 (UO-31) was > 100 µM (inactive).
